Structures can show the parent of a compound that is named as a salt. Where two headings read alike, the source gives them in different places.
Columns and labels:
human platelet PLA2 = target: T1, human platelet PLA2 (Homo sapiens, UniProt P14555); assay: Inhibition of human platelet PLA2 (hydrolysis of [1-14C]oleic acid labelled E. coli membrane phospholipids) in vitro; type: biochemical; conditions: for IC50: standard drugs
T1 sequence (P14555 21-144): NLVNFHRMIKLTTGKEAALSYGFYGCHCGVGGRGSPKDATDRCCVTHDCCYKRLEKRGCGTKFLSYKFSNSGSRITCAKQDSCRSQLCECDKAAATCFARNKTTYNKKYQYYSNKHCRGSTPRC
Protocol: The ability of the compounds to inhibit the activity of PLA2 enzyme is measured in the following in vitro assay.
The assay measures the hydrolysis of E. coli membrane phospholipids and the release of free [1-^14 C] oleic acid from the C-2 position of phospholipids by human platelet PLA2. To ice cold 15×100 mm test tubes, the following additions are made: 2,5×10 E. coli (equivalent to 4 nmol phospholipid), 5 mM Ca^++, 100 mM Tris buffer (pH=7.4), 100 μg platelet extract (or an amount to produce 20-30% hydrolysis), drug or vehicle. The final volume is adjusted to 500 μl with water. Mixtures are vortexed and incubated for 30 minutes in a shaking water bath. It should be noted that preliminary experiments are always performed with each new batch of platelets to establish linear hydrolysis of phospholipids with regard to protein concentration and time. The enzyme reaction is stopped by the addition of 3 volumes of chloroform to each tube which is vortexed and then centrifuged for 5 minutes at 500 g. The lower chloroform/methanol phase is removed and evaporated under N. The dried residue is redissolved in 50 μl CHCl3 :CH3 OH (9:1 v/v), spotted on aluminum-backed chromatographic plates and developed in a solvent system consisting of petroleum ether:diethyl ether:acetic acid (80:20:1). Free fatty acid ([1-^14 C]oleic acid) and [1-^14 C]oleic acid labeled phospholipids are visualized with exposure to iodine vapors. Radioactive areas that cochromatographed with authentic oleic acid and phospholipid standards are cut out and placed in a scintillation vial. One ml CH3 OH and 10 ml Hydrofluor are added to each cut strip and radioactivity is determined by liquid scintillation counting.
The percent hydrolysis is calculated by the following equation: [formula]

[1] = test system: 12-O-tetradecanoylphorbol acetate (TPA)-induced murine ear edema; assay: TPA-induced murine ear edema test; type: in vivo, Swiss Webster female mice; conditions: oral, 30 minutes after TPA; 4 μg TPA/ear; measured 4 hours after TPA; dose in mg/kg not given
Protocol: The ability of the compounds of the invention to inhibit PLA2 is further examined in the in vivo 12-O-tetradecanoylphorbol acetate (TPA)-induced murine ear edema test. According to this test, Swiss Webster female mice (Buckshire), approximately 8 weeks old, are placed into plastic boxes in groups of six. Eight groups of mice receive TPA topically on the right ear. TPA is dissolved in acetone at a concentration of […]. The phlogistics are applied to the right ear by the means of an automatic pipet. Volumes of 10 μl are applied to the inner and outer surfaces of the ear. Each mouse receives 4 μg/ear TPA. The left ear (control) receives acetone delivered in the same manner. […] Measurements are taken with Oditest calipers, 0-10 mm with 0.01 graduations. The right and left ears are measured 4 hours after TPA-induced inflammation. The difference between right and left ear thickness is calculated and the significance is determined by a one way analysis of variance with Dunnett's comparisons to control (P=0.05). Drug effects are expressed as a percent change from control values: [formula]

[2] = test system: rat carrageenan paw edema; assay: Rat carrageenan paw edema assay; type: in vivo, male Sprague-Dawley rats; conditions: for % Inhibition (paw edema): 100 mg/kg peroral, 1 hour prior to carrageenan, paw read at 3 hours
Protocol: The compounds of the invention are further tested in the rat carrageenan paw edema assay to determine their ability to inhibit the acute inflammatory response.
This assay is carried out as follows:
140-180 gm male Sprague-Dawley rats, in groups of 6 animals are injected subcutaneously in the right paw with 0.1 ml of 1% carrageenan at zero time. Mercury plethysmographic readings (ml) of the paw are made at zero time and 3 hours later. Test compounds are suspended or dissolved in 0.5% methylcellulose and given perorally 1 hour prior to carrageenan administration.
The increase in paw volume (edema in ml.) produced by the carrageenan is measured. […] Unpaired Student's t-test used to determine statistical significance.

[3] = test system: synthesis of arachidonic acid, PGE2 and LTC4 by murine peritoneal macrophages; assay: Inhibition of synthesis of arachidonic acid, PGE2 and LTC4 by murine peritoneal macrophages; type: cell-based, CD-1 mice; conditions: Mus musculus, Peritoneal macrophage, 2 hours
Protocol: The ability of the compounds of the invention to inhibit both leukotriene and prostaglandin synthesis is examined in an assay which measures the ability of the compounds of the invention to inhibit the synthesis of arachidonic acid, PGE2 and LTC4 by murine peritoneal macrophages.
The assay is carried out as follows:
Macrophages are removed from the peritoneal cavity of 55-57 day old CD-1 mice (killed by CO2 asphyxiation) by peritoneal lavage and centrifuged at 400×g for ten minutes. The cells are resuspended in Medium 199 and 4×10^6 cells are allowed to adhere on 35×10 mm Petri dishes for 1.5 hours at 37° C. in an atmosphere of 95% air and 5% CO2. The cell monolayers are washed and incubated overnight in Medium 199 supplemented with 10% heat inactivated bovine serum containing 1μCi[^14 C]-arachidonic acid, or in the absence of ^14 C-arachidonic acid when the supernatant is to be assayed by radioimmunoassay (RIA). The labeled cells are then washed and incubated at 37° C. for 2 hours in Medium 199 with the prostaglandin stimuli, zymosan, or 12-o-tetradecanoyl-phorbol-13-acetate (TPA) and in the presence or absence of test compounds. Following incubation, the supernatant is removed and subjected to radioimmunoassay in order to determine the percent inhibition of arachidonic acid, prostaglandin E2 and leukotriene C4 by the test compounds.

[4] = pH 7.4, read-out: % Inhibition of PLA2
[5] = human platelet PLA2, 30 minutes, pH 7.4
[6] = at 100 μM, human platelet PLA2, 30 minutes, pH 7.4, read-out: % Inhibition of PLA2

inhibition at 100 µM (human platelet PLA2; [6]) [%] | Molecule | inhibition at 100 µM (human platelet PLA2; [4]) [%] | further results
– | CCCCC(N)C(=O)NC1CCCCCCCCCCC1.Cl (centres unmarked) [Example 2a, 2-Amino-N-cyclododecylhexanamide, hydrochloride] | 76 | % Change from Control (mouse ear edema) [1]: -60%; % Inhibition (paw edema) [2]: 22%
– | Gold Sodium Thiomalate [reference compound] | – | IC50 (human platelet PLA2; [5]): 43 µM
64 | CCCC[C@H](NC(=O)CCCCCCc1ccccc1)C(=O)N1CC(C)NC(C)C1 (stereo partly drawn) [Example 3, N-[(S)-1-Butyl-2-(3,5-dimethyl-1-piperazinyl)-2-oxoethyl]benzeneheptanamide] | – | % Change from Control (mouse ear edema) [1]: -39%
52 | CCCCC(NC(=O)Cc1ccc(-c2ccccc2)cc1)C(=O)N1CC(C)NC(C)C1 (centres unmarked) [Example 4, N-[1-[(3,5-Dimethyl-1-piperazinyl)carbonyl]pentyl][1,1'-biphenyl]-4-acetamide] | – | –
24 | CCCC[C@H](N)C(=O)N1CCC2CCCCC2C1 (stereo partly drawn) [Example 2c, 2-[(S)-2-Amino-1-oxohexyl]decahydroisoquinoline, hydrochloride hemihydrate] | – | –
– | COc1ccc2c(c1)c(CC(=O)O)c(C)n2C(=O)c1ccc(Cl)cc1 [Indomethacin, reference compound] | – | IC50 (human platelet PLA2; [5]): 48 µM; ED50 ([2]; Rattus norvegicus, po, 3 h, read-out: Oral ED50 (95% C.L.)): 3.7 mg/kg
– | CCCC[C@H](N)C(=O)N1CCC(C)CC(C)(C)C1 (stereo partly drawn) [Example 2b, 1-[(S)-2-Amino-1-oxohexyl]hexahydro-3,3,5-trimethyl-1H-azepine, hydrochloride] | 25 | –
– | O=C(NC1CCCCCCCCCCC1)C1CCCCN1 (centres unmarked) [Example 5d, N-Cyclododecyl-2-piperidinecarboxamide, hydrochloride] | 45 | –
24 | O=C(C1CCCCN1)N1CCC2CCCCC2C1 (centres unmarked) [Example 5f, Decahydro-2-(2-piperidininylcarbonyl)isoquinoline, hydrochloride] | – | –
– | N[C@@H](CC(=O)OCc1ccccc1)C(=O)NC1CCCCCCCCCCC1 [Example 7, (S)-3-Amino-4-(cyclododecylamino)-4-oxobutanoic acid phenylmethyl ester, hydrochloride] | 60 | –
– | CCCCCCCCCCCCCCCCNC(=O)C(N)CCCC.Cl (centres unmarked) [Example 1, 2-Amino-N-hexadecylhexanamide, hydrochloride] | 99 | % Change from Control (mouse ear edema) [1]: -25%
92 | CCCCCCCCCCCCCCCCNC(=O)[C@@H]1CCCN1 [Example 5a, N-(S)-Hexadecyl-2-pyrrolidinecarboxamide] | – | % Change from Control (mouse ear edema) [1]: -53%; % Inhibition (paw edema) [2]: 26%; IC50 ([3]; arachidonic acid, zymosan or TPA stimulus, read-out: IC50 AA): 19.6 µM; IC50 ([3]; leukotriene C4, zymosan or TPA stimulus, read-out: IC50 LTC4): 7.6 µM; IC50 ([3]; prostaglandin E2, zymosan or TPA stimulus, read-out: IC50 PGE2): 13.7 µM
98 | CCCCCCCCCCCCCCCCNC(=O)[C@H]1CCCN1 [Example 5b, N-(R)-Hexadecyl-2-pyrrolidinecarboxamide] | – | % Inhibition (paw edema) [2]: 26%
– | O=C(NC1CCCCCCCCCCC1)C1CCCN1 (centres unmarked) [Example 5c, N-Cyclododecyl-2-pyrrolidinecarboxamide, hydrochloride] | 58 | –
– | N[C@@H](Cc1c[nH]c2ccccc12)C(=O)NC1CCCCCCCCCCC1 [Example 6, (S)-α-Amino-N-cyclododecyl-1H-indole-3-propanamide, hydrochloride] | 52 | –
